System: NOMO1
Experiment: cell viability relative to DMSO control; higher = less cytotoxic
Settings: 48 h
Method in brief: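 Leukemia cells (NOMO1 or SEM, 500 cells/well; P12-Ichikawa, 1000 cells/well) were seeded in 5 μl in 1536-well plates after at least four passages of adaptation to each medium. They received library compounds in DMSO by pin dosing, 11 threefold points from 47 μM to 0.79 nM. Luminescence with CellTiter-Glo One was read after 48 h at 37°C. Viability is stated per plate relative to DMSO wells, with cell-free wells as background.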

[1] = HPLM + 10% dialyzed FBS, 0.000781 µM
[2] = HPLM + 10% dialyzed FBS, 0.00234 µM
[3] = HPLM + 10% dialyzed FBS, 0.00702 µM
[4] = HPLM + 10% dialyzed FBS, 0.0211 µM
[5] = HPLM + 10% dialyzed FBS, 0.0632 µM
[6] = HPLM + 10% dialyzed FBS, 0.19 µM
[7] = HPLM + 10% dialyzed FBS, 0.569 µM
[8] = HPLM + 10% dialyzed FBS, 1.71 µM
[9] = HPLM + 10% dialyzed FBS, 5.12 µM
[10] = HPLM + 10% dialyzed FBS, 15.4 µM
[11] = HPLM + 10% dialyzed FBS, 46.1 µM
[12] = RPMI 5 mM glucose + 10% dialyzed FBS, 0.000781 µM
[13] = RPMI 5 mM glucose + 10% dialyzed FBS, 0.00234 µM
[14] = RPMI 5 mM glucose + 10% dialyzed FBS, 0.00702 µM
[15] = RPMI 5 mM glucose + 10% dialyzed FBS, 0.0211 µM
[16] = RPMI 5 mM glucose + 10% dialyzed FBS, 0.0632 µM
[17] = RPMI 5 mM glucose + 10% dialyzed FBS, 0.19 µM
[18] = RPMI 5 mM glucose + 10% dialyzed FBS, 0.569 µM
[19] = RPMI 5 mM glucose + 10% dialyzed FBS, 1.71 µM
[20] = RPMI 5 mM glucose + 10% dialyzed FBS, 5.12 µM
[21] = RPMI 5 mM glucose + 10% dialyzed FBS, 15.4 µM
[22] = RPMI 5 mM glucose + 10% dialyzed FBS, 46.1 µM
[23] = RPMI 5 mM glucose + 10% FBS, 0.000781 µM
[24] = RPMI 5 mM glucose + 10% FBS, 0.00234 µM
[25] = RPMI 5 mM glucose + 10% FBS, 0.00702 µM
[26] = RPMI 5 mM glucose + 10% FBS, 0.0211 µM
[27] = RPMI 5 mM glucose + 10% FBS, 0.0632 µM
[28] = RPMI 5 mM glucose + 10% FBS, 0.19 µM
[29] = RPMI 5 mM glucose + 10% FBS, 0.569 µM
[30] = RPMI 5 mM glucose + 10% FBS, 1.71 µM
[31] = RPMI 5 mM glucose + 10% FBS, 5.12 µM
[32] = RPMI 5 mM glucose + 10% FBS, 15.4 µM
[33] = RPMI 5 mM glucose + 10% FBS, 46.1 µM

| SMILES | cell viability [1] [%] | cell viability [2] [%] | cell viability [3] [%] | cell viability [4] [%] | cell viability [5] [%] | cell viability [6] [%] | cell viability [7] [%] | cell viability [8] [%] | cell viability [9] [%] | cell viability [10] [%] | cell viability [11] [%] | cell viability [12] [%] | cell viability [13] [%] | cell viability [14] [%] | cell viability [15] [%] | cell viability [16] [%] | cell viability [17] [%] | cell viability [18] [%] | cell viability [19] [%] | cell viability [20] [%] | cell viability [21] [%] | cell viability [22] [%] | cell viability [23] [%] | cell viability [24] [%] | cell viability [25] [%] | cell viability [26] [%] | cell viability [27] [%] | cell viability [28] [%] | cell viability [29] [%] | cell viability [30] [%] | cell viability [31] [%] | cell viability [32] [%] | cell viability [33] [%] |
| --- | --- | --- | --- | --- | --- | --- | --- | --- | --- | --- | --- | --- | --- | --- | --- | --- | --- | --- | --- | --- | --- | --- | --- | --- | --- | --- | --- | --- | --- | --- | --- | --- | --- |
| OC[C@H]1OC(O)C[C@@H](O)[C@@H]1O (stereo not given in full) | 110 | 113 | 127 | 125 | 125 | 128 | 121 | 135 | 109 | 122 | 52.4 | 109 | 118 | 128 | 125 | 137 | 123 | 120 | 142 | 128 | 129 | 68 | – | – | – | – | – | – | – | – | – | – | – |
| CC[C@H](C)C(=O)O[C@H]1C[C@@H](C)\C=C2\C=C/[C@H](C)[C@H](CC[C@@H]3C[C@@H](O)CC(=O)O3)[C@@H]12 | 95.9 | 103 | 100 | 108 | 96.3 | 92.8 | 90.6 | 89.9 | 93.3 | 69.4 | 53.5 | 80.3 | 93 | 84.6 | 97 | 91.7 | 91 | 91.3 | 82 | 90.7 | 77.4 | 54.9 | 87.5 | 89.1 | 89.7 | 98.9 | 83.5 | 90 | 88.4 | 80.5 | 86.8 | 77.1 | 71.4 |
| COCC(=O)NC/C=C/c1ccc2ncnc(Nc3ccc(Oc4ccc(C)nc4)c(C)c3)c2c1 | 84.6 | 89.4 | 109 | 90.8 | 92.1 | 57.3 | 65.8 | 52.9 | 37 | 42.4 | 34.2 | 87.7 | 90.6 | 93.9 | 99.8 | 97.4 | 92.2 | 78.4 | 71.2 | 57.6 | 66.8 | 41 | 94.2 | 96.4 | 107 | 95 | 90.6 | 81.3 | 78 | 49.7 | 60.2 | 50.1 | 52.8 |
| Cc1cccc(-c2[nH]c(C(C)(C)C)nc2-c2ccc3nccnc3c2)n1 | 113 | 135 | 110 | 117 | 111 | 133 | 123 | 128 | 112 | 114 | 47 | 119 | 112 | 122 | 108 | 113 | 119 | 120 | 118 | 112 | 98.2 | 51.4 | 133 | 121 | 117 | 124 | 123 | 98.2 | 124 | 106 | 106 | 114 | 96.6 |
| CC(C)(C)NCC(O)c1ccc(O)c(CO)c1 (stereo not given) | 100 | 109 | 109 | 132 | 119 | 114 | 107 | 70.5 | 55.5 | 47.8 | 44.7 | 102 | 109 | 115 | 114 | 110 | 110 | 92.8 | 76.7 | 65.3 | 70.7 | 47 | 102 | 98.3 | 105 | 106 | 112 | 99.9 | 107 | 79.2 | 78.1 | 64.7 | 51.4 |
| CN(C)CCc1c[nH]c2ccc(Cn3cncn3)cc12 | 93.7 | 103 | 105 | 102 | 115 | 77.6 | 86.2 | 18.3 | 9.15 | 6.34 | 3.57 | 94.9 | 93.5 | 98.1 | 106 | 92.8 | 78.8 | 86.1 | 32 | 10.7 | 5.4 | 4.44 | 84.7 | 91.7 | 89.8 | 87.1 | 91.5 | 65.3 | 82.4 | 17.4 | 7.32 | 5.18 | 3.92 |
| COC(=O)[C@H](Cc1ccccc1)NC(=O)[C@@H](N)CC(=O)O | 110 | 124 | 116 | 112 | 128 | 115 | 113 | 112 | 93.6 | 96.1 | 94.9 | 126 | 117 | 120 | 112 | 112 | 125 | 106 | 122 | 70.4 | 116 | 108 | 108 | 121 | 125 | 122 | 110 | 126 | 115 | 107 | 112 | 105 | 108 |
| CC(C)C[C@H](CC(=O)O)C(=O)N[C@@H](Cc1c[nH]c2ccccc12)C(=O)N[C@@H](C)c1ccccc1 | 122 | 114 | 124 | 112 | 109 | 123 | 104 | 116 | 95.9 | 60.9 | 37.3 | 104 | 115 | 105 | 105 | 114 | 114 | 116 | 127 | 113 | 113 | 56.6 | 91.3 | 93.9 | 105 | 103 | 109 | 109 | 107 | 107 | 105 | 74.8 | 29.5 |
| Cc1nnc(C(=O)NC(C)(C)c2nc(C(=O)NCc3ccc(F)cc3)c(O)c(=O)n2C)o1 | 121 | 112 | 119 | 118 | 104 | 103 | 106 | 101 | 95.6 | 97.9 | 96.6 | 93.7 | 100 | 107 | 93.1 | 109 | 96.6 | 95 | 96.8 | 93.7 | 104 | 94.5 | 87.6 | 99.4 | 96.8 | 92.4 | 96.7 | 99.1 | 100 | 91.2 | 86.5 | 92.2 | 93.3 |
| O=c1oc2cc(O)ccc2s1 | 109 | 128 | 120 | 107 | 114 | 110 | 110 | 95.8 | 101 | 110 | 90.3 | 98.1 | 116 | 117 | 119 | 103 | 104 | 112 | 105 | 101 | 107 | 109 | 109 | 117 | 130 | 108 | 105 | 116 | 108 | 108 | 115 | 102 | 98.3 |
| CC[C@H](CO)Nc1nc(NCc2ccccc2)c2ncn(C(C)C)c2n1 | 98.6 | 95.1 | 98.5 | 99.4 | 89.8 | 88 | 89.4 | 82.9 | 85.7 | 96.4 | 54.2 | 96.7 | 96.3 | 85.2 | 90.9 | 94.1 | 86.2 | 95.2 | 90.1 | 94.2 | 77.3 | 70.3 | 82.5 | 93.9 | 93.9 | 83.7 | 84.3 | 88.3 | 87.4 | 79.5 | 84.2 | 77 | 76.6 |
| C=C1CCC2[C@](C)(CO)C(O)CC[C@]2(C)C1C/C=C1/C(=O)OCC1O (stereo not given in full) | – | – | – | – | – | – | – | – | – | – | – | 121 | 104 | 114 | 110 | 118 | 107 | 105 | 109 | 95.5 | 101 | 96.9 | 111 | 109 | 115 | 101 | 114 | 113 | 99.3 | 105 | 97.5 | 104 | 98.4 |
| NC(=O)N1CCC(CC(=O)N2CCC([C@H]3c4ncc(Br)cc4CCc4cc(Cl)cc(Br)c43)CC2)CC1 | 113 | 109 | 126 | 118 | 117 | 110 | 114 | 122 | 90 | 90 | 53.4 | 109 | 113 | 123 | 112 | 118 | 112 | 94 | 104 | 95.7 | 87.6 | 69.4 | 107 | 112 | 109 | 98.5 | 104 | 103 | 99.2 | 101 | 86.2 | 80.2 | 54.1 |
| CN(C)C(=O)[C@H](O)[C@H](Cc1ccccc1)NC(=O)c1cc2cc(Cl)ccc2[nH]1 | 107 | 107 | 115 | 122 | 122 | 132 | 144 | 145 | 171 | 145 | 138 | 83.9 | 109 | 109 | 109 | 113 | 115 | 132 | 133 | 118 | 136 | 126 | 111 | 105 | 103 | 103 | 124 | 126 | 127 | 109 | 123 | 121 | 112 |
| O=C1\C=C(OC2=C(C=CC=C12)C3=CC=CC4=C3SC5=C4C=CC=C5)\N6CCOCC6 | 123 | 123 | 129 | 128 | 135 | 121 | 135 | 133 | 114 | 132 | 112 | 113 | 121 | 125 | 131 | 128 | 129 | 133 | 136 | 116 | 117 | 107 | – | – | – | – | – | – | – | – | – | – | – |
| Cc1nc2ccc(CN(C)c3ccc(C(=O)N[C@@H](CCC(=O)O)C(=O)O)s3)cc2c(=O)[nH]1 | 110 | 120 | 101 | 111 | 99 | 53.3 | 46 | 44.8 | 41.6 | 41.6 | 38.7 | 116 | 109 | 104 | 120 | 108 | 70.9 | 37.6 | 25.6 | 33 | 33.1 | 32.1 | 120 | 113 | 105 | 112 | 100 | 114 | 94.5 | 72.2 | 71.8 | 75.7 | 73.1 |

— the supplement of paper PMC11451515
